Results published in publication PMC12955902 (Advanced Science, 2025).

How the values were obtained:
[1] = target: T1, SaHU (Staphylococcus aureus, UniProt Q99U17); test: microscale thermophoresis; type: binding
T1 sequence (Q99U17 1-90): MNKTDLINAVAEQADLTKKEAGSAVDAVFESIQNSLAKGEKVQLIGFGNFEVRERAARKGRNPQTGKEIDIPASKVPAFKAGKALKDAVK

[2] = target: T2, HU protein of S. pyogenes (Streptococcus pyogenes, UniProt Q5XB35); test: WaterLOGSY NMR; type: binding; settings: 10 µM HU, 400 µM compound; 50 mM NaCl, 20 mM Tris, pH 7.4, 5% DMSO, 10% D2O, 298 K
T2 construct: gene hup
T2 sequence (Q5XB35 whole entry): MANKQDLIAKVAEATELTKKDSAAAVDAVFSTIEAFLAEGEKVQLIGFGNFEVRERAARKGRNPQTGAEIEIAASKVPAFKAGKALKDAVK

[3] = target: T3, HU protein of M. tuberculosis (Mycobacterium tuberculosis, UniProt P9WMK7)
T3 construct: gene hupB
T3 sequence (P9WMK7 2-216): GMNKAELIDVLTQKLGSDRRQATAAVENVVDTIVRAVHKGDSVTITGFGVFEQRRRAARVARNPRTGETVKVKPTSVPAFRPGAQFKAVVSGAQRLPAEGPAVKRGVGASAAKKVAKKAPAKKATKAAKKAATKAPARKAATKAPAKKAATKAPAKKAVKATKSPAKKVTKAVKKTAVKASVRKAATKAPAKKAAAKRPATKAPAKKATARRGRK

Row | SMILES | Kd [1] [µM] | WaterLOGSY NMR [2] | WaterLOGSY NMR [3]
1 | O=C(/C=C/c1cccc(S(=O)(=O)Nc2ccccc2)c1)NO [Belinostat] | 4.24 ± 0.24 | including A. baumannii, S. pneumoniae, B. subtilis, M. tuberculosis and S. pyogenes | including A. baumannii, S. pneumoniae, B. subtilis, M. tuberculosis and S. pyogenes
2 | O=C(/C=C/c1ccccc1)NO [CHA] | 5.77 ± 0.93 | – | –
